Data from patent US4358607A, “Chloro-substituted benzospiro cyclopropane carboxylic acid” (American Cyanamid Co., priority 1978, dated 1982).
Several values for one entry are separate records, joined by “and”; a condition that tells them apart may be missing. Equal values may be shown once.

Legend:
Format in all cases: in vivo
[1] = test system: Tobacco Budworm [Heliothis virescens] eggs; test: Tobacco Budworm egg test; details: 300 ppm, 3 days
Method: (§1) Tobacco Budworm [Heliothis virescens (Fabricus)].
(§2) A cotton plant with 2 true leaves expanded is dipped for 3 seconds with agitation in a 300 ppm solution. A 1.25 to 2 cm square of cheesecloth with about 50 to 100 budworm eggs 0-24 hours old is also dipped in the test solution and placed on one leaf to dry. The leaf with the treated budworm eggs is removed from the plant and placed in a 236.6 ml (8-Oz) Dixie cup with a wet 5 cm piece of dental wick and covered with a lid. The other leaf is placed in a similar cup with a wick and a piece of cheesecloth infested with 50-100 newly hatched larvae is added before covering the cup with a lid. After 3 days at 26.7° C., observations of egg hatch are made as well as kill of newly hatched larvae, any inhibition of feeding, or interference of any sort with normal development.
(§3) The rating system employed in these tests is as follows:
(§4) Compounds rated active (8 or 9) are further tested at reduced concentrations in 50% acetone: 50% water.

[2] = test system: Malaria Mosquito (Anopheles quadrimaculatus); test: Malaria Mosquito egg and larvae test
Method: Malaria Mosquito (Anopheles quadrimaculatus say) egg and larvae test. One ml of a 300 ppm solution is pipetted into a 400 ml beaker containing 250 ml of deionized water and stirred with the pipette, giving a concentration of 1.2 ppm. A wax paper ring 0.6 cm wide to fit inside the beaker is floated on the surface of the test solution to keep the eggs from floating up the meniscus curve and drying out on the side of the glass. A spoon made of screen is used to scoop up and transfer about 100 eggs (0-24 hours old) into the test beaker. After two days at 26.7°C. observations of hatching are made. This includes kill of eggs or inhibition of hatch, kill of newly hatched larvae, or delayed hatch. Additional observations are made after another day for the same effects. The rating system employed in these tests is as follows: Compounds rated active (8 or 9) are further tested at reduced concentrations in 50% acetone: 50% water.

[3] = test system: Tobacco Budworm [Heliothis virescens] larvae; test: Tobacco Budworm newly hatched larvae test; details: 3 days
Method: as §1, §2, §3, §4

[4] = test system: Southern Armyworm [Spodoptera eridania]; test: Southern Armyworm test; details: 2 days
Method: Southern Armyworm [Spodoptera eridania (Cramer)].
A sieva lima bean plant with just the primary leaves expanded to 7.6 to 10 cm is dipped for 3 seconds with agitation in a 1000 ppm solution and set in a hood to dry. Following this, one leaf is placed in a 10 cm petri dish which has a moist filter paper in the bottom and 10 third-instar armyworm larvae about 1 cm long. The dish is covered and held at 26.7° C. After 2 days mortality counts and estimates of the amount of feeding are made. Compounds showing partial kill and/or inhibition of feeding are held for an extra day for further observations.
as §3, §4

[5] = test system: Mexican Bean Beetle (Epilachna varivestis); test: Mexican Bean Beetle test; details: 300 ppm
Description: Mexican Bean Beetle (Epilachna varivestis Mulsant)
Sieva lima bean plants (2 per pot) with primary leaves 7.6 to 10 cm long, are dipped in a 300 ppm solution and set in a hood to dry. One leaf is removed from the plant and placed in a 10 cm petri dish containing a moist filter paper on the bottom and 10 last-instar larvae (13 days from hatching).
The day after treatment, another leaf is removed from the plant and fed to the larvae after removing the remains of the original leaf. Two days after treatment, the third leaf is fed to the larvae, this usually being the last needed. The fourth leaf is used on the third day after treatment if the larvae have not finished feeding. The test is now set aside and held until adults have emerged, usually about 9 days after treatment began. After emergence is complete, each dish is examined for dead larvae, pupae or adults; deformed pupae or adults; larval-pupal intermediates or pupal-adult intermediates; or any other interference with normal molting, transformation and emergence of pupae or adults.
as §3, §4

[6] = test system: Two-Spotted Spider Mite [Tetranychus urticae]; test: Phosphate-Resistant Strain of Two-Spotted Spider Mite test
Method: Phosphate-Resistant Strain of Two-Spotted Spider Mite [Tetranychus urticae (Koch)].
Sieva lima bean plants, with primary leaves 7.6 to 10 cm long, are infested with about 100 adult mites per leaf 4 hours before use in this test, in order to allow egg-laying before treatment. The infested plants are dipped for 3 seconds with agitation into a 300 ppm solution, and the plants set in the hood to dry. After 2 days at 26.7° C., the adult mite mortality is estimated on one leaf under a 10X stereoscopic microscope. The other leaf is left on the plant an additional 5 days and then examined at 10X power to estimate the kill of eggs and of newly-hatched nymphs, giving a measure of ovicidal and residual action, respectively.
as §3, §4

[7] = test system: Boophilus microplus larvae; test: Control of Boophilus microplus larvae; details: Rhipicephalus microplus, 48 h, read-out: Percent Mortality of Boophilus microplus
Method: Twenty larvae are enclosed in a pipet sealed at one end with a gauze material, and a solution, containing the test compound at the concentrations given, is then drawn through the pipet with a vacuum hose simulating a spray system. The ticks are then held for 48 hours at room temperature, and percent mortality rates are then determined.

Boophilus microplus = test: Control of Ixodidae: engorged adult female ticks, reduction in viable egg masses
Method: The compound to be tested is dissolved in a 35% acetone/65% water mixture in amounts sufficient to provide the concentrations indicated in Table I below. Ten ticks per treatment are used and they are immersed in the test solution for three to five minutes, then removed and held in incubators for two to three weeks at 28° C. Counts of ticks laying eggs are then made and recorded. Eggs which were laid are placed in containers and kept for one month to observe hatching and to determine chemosterilant effect.
Percent reduction in viable egg masses is believed to be indicative of one or more of the following mechanisms:
2. Suppression of fecundity.
3. Chemosterilant effect.

Bean Aphid (Aphid fabae) = test: Bean Aphid test; details: 1 day
Method: Bean Aphid (Aphid fabae Scopoli).
Five cm fiber pots, each containing a nasturtium plant 5 cm high and infested with 100 to 500 aphids 2 days earlier are placed on a 4 rpm turntable and sprayed with a 100 ppm solution of 2 revolutions with a No. 154 DeVilbiss Atomizer at 1.4 kg/cm^2 air pressure. The spray tip is held about 15 cm from the plants and the spray directed so as to give complete coverage of the aphids and the plants. The sprayed plants are laid on their sides on white enamel trays. Mortality estimates are made after 1 day at 26.7° C.
as §3, §4

[8] = test system: Cabbage Looper [Trichoplusia ni]; test: Cabbage Looper test; details: 2 days
Method: Cabbage Looper. [Trichoplusia ni (Hubner)].
A primary leaf of a cotton plant is dipped in the test solution and agitated for 3 seconds. It is then set in a hood to dry. Following this, the leaf is placed in a 10 cm petri dish containing a moist filter paper at the bottom and 10 third-instar loopers. The dish is covered and held at 26.7° C. After 2 days, mortality counts and estimates of feeding damage are recorded. Those materials showing partial kill and/or inhibition of feeding are held for another day for further observations.
as §3, §4

[9] = test system: Western Potato Leaf Hopper (Empoasca abrupta); test: Western Potato Leaf Hopper test; details: 2 days
Description: Western Potato Leaf Hopper (Empoasca abrupta DeLong)
A lima bean plant with the primary leaf expanded to 7.6 to 10 cm is dipped into a 100 ppm solution and set in a hood to dry. A 2.5 cm piece of the tip of 1 leaf is cut off and placed in a 10 cm petri dish with a moist filter paper in the bottom. (In practice, this is usually cut off the tip of a plant from the Mexican bean beetle tests using a bean leaf dipped in the needed solution). From 3 to 10 second-instar nymphs are tapped from the culture plants into the test dish and rapidly covered. Mortality counts are made after two days at 26.7° C.
as §3, §4

[10] = test system: Tobacco Budworm [Heliothis virescens] third instar; test: Tobacco Budworm third instar test; details: 3 days
Method: Tobacco Budworm [Heliothis virescens (Fabricius)]. Third instar. Three cotton plants with just expanded cotyledons are dipped in a 1000 ppm solution, and placed in a hood to dry. When dry, each cotyledon is cut in half and 10 are each placed in a 29.6 ml plastic medicine cup containing a 1.25 cm dental wick saturated with water, and one third-instar budworm larva is added. The cup is capped and held for 3 days at 26.7° C., after which mortality counts are made. The rating system employed in these tests is as follows: Compounds rated active (8 or 9) are further tested at reduced concentrations in 50% acetone: 50% water.

[11] = test system: Malaria Mosquito (Anopheles quadrimaculatus) adult; test: Malaria Mosquito Adult Test; details: 1 day
Method: Malaria Mosquito (Anopheles quadrimaculatus Say) Adult Test
Ten ppm solutions are poured into wide-mouth 46.2 ml jars each containing a microscope slide. The slides are removed from the test solution with forceps and laid horizontally to dry on a wide-mouth 118.4 ml bottle. When dry, they are placed in the same 118.4 ml bottle and ten 4 to 5-day old mosquitoes of mixed sexes are added to each bottle. A piece of cotton gauze held on by an elastic band serves as a lid and a wad of cotton soaked in 10% honey solution serves as food. Mortality counts are made after 1 day at 26.7° C.
as §3, §4

CC1(C)C(C(=O)OCc2cccc(Oc3ccccc3)c2)C12C=C(Cl)c1ccccc12 (centres unmarked) [drawing 10]
Insecticidal activity rating, Tobacco Budworm Eggs [1]: 0 (0-4% killed or affected)
Insecticidal activity rating, Mosquito Larvae ([2]; 0.04 ppm): 9 (100% mortality)
Insecticidal activity rating, Mosquito Larvae ([2]; 0.4 ppm): 9 (100% mortality)
Insecticidal activity rating, Mosquito Larvae ([2]; 1.2 ppm): 9 (100% mortality)
Insecticidal activity rating, Tobacco Budworm Larvae ([3]; 10 ppm): 9 (100% mortality)
Insecticidal activity rating, Tobacco Budworm Larvae ([3]; 100 ppm): 9 (100% mortality)
Insecticidal activity rating, Tobacco Budworm Larvae ([3]; 300 ppm): 9 (100% mortality)

CC1(C)C(C(=O)OCc2cccc(Oc3ccccc3)c2)C12C=C(Cl)c1ccccc12 (centres unmarked) [drawing 12]
Insecticidal activity rating, Southern Armyworms ([4]; 10 ppm): 0 (0-4% killed or affected)
Insecticidal activity rating, Southern Armyworms ([4]; 100 ppm): 9 (100% mortality)
Insecticidal activity rating, Southern Armyworms ([4]; 1000 ppm): 9 (100% mortality)
Insecticidal activity rating, Mexican Bean Beetles [5]: 9 (100% mortality)
Activity rating, Phosphate Resistant Mites ([6]; 100 ppm): 0 (0-4% killed or affected)
Activity rating, Phosphate Resistant Mites ([6]; 300 ppm): 8 (86-95% mortality)

CC1(C)C(C(=O)OC(C#N)c2cccc(Oc3ccccc3)c2)C12C=C(Cl)c1ccccc12 (centres unmarked) [drawing 9]
Insecticidal activity rating, Tobacco Budworm Eggs [1]: 0 (0-4% killed or affected)
Insecticidal activity rating, Mosquito Larvae ([2]; 0.04 ppm): 9 (100% mortality)
Insecticidal activity rating, Mosquito Larvae ([2]; 0.4 ppm): 9 (100% mortality)
Insecticidal activity rating, Mosquito Larvae ([2]; 1.2 ppm): 9 (100% mortality)
Insecticidal activity rating, Tobacco Budworm Larvae ([3]; 10 ppm): 9 (100% mortality)
Insecticidal activity rating, Tobacco Budworm Larvae ([3]; 100 ppm): 9 (100% mortality)
Insecticidal activity rating, Tobacco Budworm Larvae ([3]; 300 ppm): 9 (100% mortality)

CC1(C)C(C(=O)OCc2cccc(Oc3ccccc3)c2)C12C=C(Cl)c1ccccc12 (centres unmarked) [drawing 8]
mortality at 100 ppm ([7]; 100 ppm): 100%

CC1(C)C(C(=O)OCc2cccc(Oc3ccccc3)c2)C12C=C(Cl)c1ccccc12 (centres unmarked) [drawing 6]
Percent reduction in viable egg masses (Boophilus microplus; 15 ppm): 0%
Percent reduction in viable egg masses (Boophilus microplus; 31 ppm): 72.7%
Percent reduction in viable egg masses (Boophilus microplus; 62 ppm): 83.9%
Percent reduction in viable egg masses (Boophilus microplus; 125 ppm): 91.9%

CC1(C)C(C(=O)OC(C#N)c2cccc(Oc3ccccc3)c2)C12C=C(Cl)c1ccccc12 (centres unmarked) [drawing 13]
Insecticidal activity rating, Bean Aphids (Bean Aphid (Aphid fabae); 1 ppm): 9 (100% mortality)
Insecticidal activity rating, Bean Aphids (Bean Aphid (Aphid fabae); 10 ppm): 9 (100% mortality)
Insecticidal activity rating, Bean Aphids (Bean Aphid (Aphid fabae); 100 ppm): 9 (100% mortality)
Insecticidal activity rating, Cabbage Looper ([8]; 100 ppm): 9 (100% mortality)
Insecticidal activity rating, Cabbage Looper ([8]; 1000 ppm): 9 (100% mortality)
Insecticidal activity rating, Leaf Hopper ([9]; 10 ppm): 9 (100% mortality)
Insecticidal activity rating, Leaf Hopper ([9]; 100 ppm): 9 (100% mortality)
Insecticidal activity rating, Tobacco Budworm 3rd Instar ([10]; 100 ppm): 0 (0-4% killed or affected)
Insecticidal activity rating, Tobacco Budworm 3rd Instar ([10]; 1000 ppm): 5 (51-60% mortality)
Insecticidal activity rating, Mosquito, Adult ([11]; 1 ppm): 7 (71-85% mortality) and 6 (61-70% mortality) and 9 (100% mortality)
Insecticidal activity rating, Mosquito, Adult ([11]; 10 ppm): 9 (100% mortality)

CC1(C)C(C(=O)OC(C#N)c2cccc(Oc3ccccc3)c2)C12C=C(Cl)c1ccccc12 (centres unmarked) [drawing 5]
Percent reduction in viable egg masses (Boophilus microplus; 125 ppm): 98%

CC1(C)C(C(=O)OCc2cccc(Oc3ccccc3)c2)C12C=C(Cl)c1ccccc12 (centres unmarked) [drawing 14]
Insecticidal activity rating, Bean Aphids (Bean Aphid (Aphid fabae); 1 ppm): 0 (0-4% killed or affected)
Insecticidal activity rating, Bean Aphids (Bean Aphid (Aphid fabae); 10 ppm): 9 (100% mortality)
Insecticidal activity rating, Bean Aphids (Bean Aphid (Aphid fabae); 100 ppm): 9 (100% mortality)
Insecticidal activity rating, Cabbage Looper ([8]; 100 ppm): 9 (100% mortality)
Insecticidal activity rating, Cabbage Looper ([8]; 1000 ppm): 9 (100% mortality)
Insecticidal activity rating, Leaf Hopper ([9]; 10 ppm): 9 (100% mortality)
Insecticidal activity rating, Leaf Hopper ([9]; 100 ppm): 9 (100% mortality)
Insecticidal activity rating, Tobacco Budworm 3rd Instar ([10]; 100 ppm): 5 (51-60% mortality)
Insecticidal activity rating, Tobacco Budworm 3rd Instar ([10]; 1000 ppm): 9 (100% mortality)
Insecticidal activity rating, Mosquito, Adult ([11]; 10 ppm): 0 (0-4% killed or affected)

CC1(C)C(C(=O)OC(C#N)c2cccc(Oc3ccccc3)c2)C12C=C(Cl)c1ccccc12 (centres unmarked) [drawing 7]
mortality at 0.012 ppm ([7]; 0.012 ppm): 0%
mortality at 0.05 ppm ([7]; 0.05 ppm): 0%
mortality at 0.78 ppm ([7]; 0.78 ppm): 80 to 100%
